EP2123668A1, “Immunogenic polypeptides that mimic the surface polysaccharide O-antigen from serotype 2A shigella flexneri, method for obtaining the same, and their use in vaccine and diagnostic compositions” (INSTITUT PASTEUR, priority 2008, dated 2009)
Where two headings read alike, the source gives them in different places. No end group written: not given here.

What was measured:
mAb F22-4 [1] = test: StopFlow antibody-ligand binding; parameters: species or system murine
F22-4 antibody = test: ITC microcalorimetry; type: binding, murine
Text: ITC experiments with F22-4 antibody and several chemically synthesized oligosaccharidic fragments of O-Ag 2a lead to two major results.

LPS/F22-4 [2] = test: ELISA inhibition of LPS/F22-4 binding; parameters: species or system murine
LPS/F22-4 [3] = conditions: cited from earlier work
mAb F22-4 [4] = test: Biacore antibody-ligand binding (equilibrium and kinetic analysis); parameters: species or system murine
[5] = tested on: S. flexneri 2a mAb (F22-4); test: Reactivity of selected or conjugated peptides with the F22-4 mAb; type: binding, murine; conditions: conjugated peptides, coupled to BSA
Text: Two protective mAbs directed against S. flexneri LPS 2a (IgG C1-7 and IgG F22-4) were used for mimotope selection using the two libraries displaying 12 amino acid-long inserts.
The peptides have been synthesized with a flanking region AEGEF at the N-terminal and DPAKC at the C-terminal. The peptides have been conjugated to maleimide-activated bovine serum albumin (BSA) and to maleimide-activated keyhole limpet hemocyanine (KLH) using a kit from Pierce. The seven different sequences have been selected by Partner 4, all showing good reactivity with the S. flexneri 2a mAb (F22-4) and being inhibited by the LPS. Five of the sequences, B24, B1, C8, C26 and C17 (shown below in bold) have been chosen for further analyzes. The reason that the peptides C22 and C3 have been omitted are that they contain cysteine and the conjugation procedure that we exploited used cysteine for coupling to the protein. The conjugated peptides have been tested for reactivity with the F22-4 mAb and were positive when coupled to BSA. […] Sequences of peptides selected using the S. flexneri 2a specific mAb F22-4

mAb F22-4 [6] = test: Biacore antibody-ligand binding (equilibrium and kinetic analysis); parameters: species or system murine; conditions: equilibrium analysis; read-out: Biacore Eq KD
LPS/F22-4 [7] = test: ELISA inhibition of LPS/F22-4 binding; parameters: species or system murine; remark: listed apart in the source
[8] = PBS buffer at 25°C, read-out: KD
[9] = Table 6 recapitulation, read-out: microcal KD
[10] = equilibrium analysis, read-out: Biacore Eq KD
[11] = kinetic analysis, read-out: Biacore Cin KD

CO[C@@H]1O[C@@H](C)[C@H](O)[C@@H](O)[C@H]1O[C@@H]1O[C@@H](C)[C@H](O)[C@@H](O)[C@H]1O[C@@H]1O[C@H](CO)[C@@H](O)[C@H](O[C@@H]2O[C@@H](C)[C@H](O[C@H]3O[C@H](CO)[C@@H](O)[C@H](O)[C@H]3O)[C@@H](O)[C@H]2O)[C@H]1NC(C)=O [ECDAB]
Kd (mAb F22-4 [1]): 300 µM | ΔH (Kcal/mol) (F22-4 antibody; PBS buffer at 25°C): -10,8±0,1 Kcal/mol | ΔS (cal/mol/K) (F22-4 antibody; PBS buffer at 25°C): -19,6 cal/mol/K | Kd (F22-4 antibody; [8]): 230000 ± 2000 nM | Kd (F22-4 antibody; [9]): 230000 ± 2000 nM | IC50 (LPS/F22-4 [2]): 354 ± 40 µM

COC1OC(C)C(O)C(O)C1OC1OC(CO)C(O)C(OC2OC(C)C(OC3OC(CO)C(O)C(O)C3O)C(O)C2O)C1NC(C)=O (stereo not drawn) [ECDA]
ΔH (Kcal/mol) (F22-4 antibody; PBS buffer at 25°C): -11,3±0,1 Kcal/mol | ΔS (cal/mol/K) (F22-4 antibody; PBS buffer at 25°C): -19.2 cal/mol/K | Kd (F22-4 antibody; [8]): 89000 ± 1000 nM

COC1OC(C)C(OC2OC(CO)C(O)C(O)C2O)C(OC2OC(C)C(O)C(O)C2OC2OC(C)C(O)C(O)C2OC2OC(CO)C(O)C(OC3OC(C)C(OC4OC(CO)C(O)C(O)C4O)C(OC4OC(C)C(O)C(O)C4O)C3O)C2NC(C)=O)C1O (stereo not drawn) [B(E)CDAB(E)C]
Kd (mAb F22-4 [1]): 0.16 µM | StopFlow koff(s-1) (mAb F22-4 [1]): 0,05 s-1 | StopFlow kon(M-1.s-1) (mAb F22-4 [1]): 3,10E+05 M-1.s-1 | ΔH (Kcal/mol) (F22-4 antibody; PBS buffer at 25°C): -19,5±0,2 Kcal/mol | ΔS (cal/mol/K) (F22-4 antibody; PBS buffer at 25°C): -36,6 cal/mol/K | Kd (F22-4 antibody; [8]): 470 nM | Kd (F22-4 antibody; [9]): 470 nM | effectiveness in inhibition compared with ECD (LPS/F22-4 [3]; LPS/F22-4 inhibition studies (12), (13)): about three orders of magnitude more effective | Kd (mAb F22-4 [4]; [10]): 610 nM | Biacore Cin koff(s-1) (mAb F22-4 [4]; kinetic analysis): 0,068±0,03 s-1 | Kd (mAb F22-4 [4]; [11]): 750 nM | IC50 (LPS/F22-4 [2]): 0.22 µM

CO[C@@H]1O[C@@H](C)[C@H](O)[C@@H](O)[C@H]1O[C@@H]1O[C@H](CO)[C@@H](O)[C@H](O[C@@H]2O[C@@H](C)[C@H](O[C@H]3O[C@H](CO)[C@@H](O)[C@H](O)[C@H]3O)[C@@H](O[C@@H]3O[C@@H](C)[C@H](O)[C@@H](O)[C@H]3O)[C@H]2O)[C@H]1NC(C)=O [B(E)CDA]
Kd (mAb F22-4 [1]): 3.5 µM | StopFlow koff(s-1) (mAb F22-4 [1]): 2,4 s-1 | StopFlow kon(M-1.s-1) (mAb F22-4 [1]): 7,00E+05 M-1.s-1 | ΔH (Kcal/mol) (F22-4 antibody; PBS buffer at 25°C): -14,2±0,1 Kcal/mol | ΔS (cal/mol/K) (F22-4 antibody; PBS buffer at 25°C): -22,7 cal/mol/K | Kd (F22-4 antibody; [8]): 3350 nM | Kd (F22-4 antibody; [9]): 3350 nM | Kd (mAb F22-4 [4]; [10]): 4100 nM | IC50 (LPS/F22-4 [2]): 2.5 µM

AEGEFPHGEIFHMMRRPDPAKC-COOH (AEGEFPHGEIFHMMRRPDPAKC-OH) [Peptide C17]
reactivity with the F22-4 mAb [5]: poor reactivity

CO[C@@H]1O[C@@H](C)[C@H](O[C@H]2O[C@H](CO)[C@@H](O)[C@H](O)[C@H]2O)[C@@H](O[C@@H]2O[C@@H](C)[C@H](O)[C@@H](O)[C@H]2O[C@@H]2O[C@@H](C)[C@H](O)[C@@H](O)[C@H]2O[C@@H]2O[C@H](CO)[C@@H](O)[C@H](O)[C@H]2NC(C)=O)[C@H]1O [DAB(E)C]
Kd (mAb F22-4 [1]): > 1100 µM | IC50 (LPS/F22-4 [2]): > 1000 µM

COC1OC(C)C(OC2OC(CO)C(O)C(O)C2O)C(OC2OC(C)C(O)C(O)C2OC2OC(C)C(O)C(O)C2OC2OC(CO)C(O)C(OC3OC(C)C(OC4OC(CO)C(O)C(O)C4O)C(OC4OC(C)C(O)C(O)C4OC4OC(C)C(O)C(O)C4OC4OC(CO)C(O)C(O)C4NC(C)=O)C3O)C2NC(C)=O)C1O (stereo not drawn) [DAB(E)CDAB(E)C]
Kd (mAb F22-4 [1]): 5 µM | StopFlow koff(s-1) (mAb F22-4 [1]): 0,29 s-1 | StopFlow kon(M-1.s-1) (mAb F22-4 [1]): 5,90E+04 M-1.s-1 | ΔH (Kcal/mol) (F22-4 antibody; PBS buffer at 25°C): -19,5±01,2 Kcal/mol | ΔS (cal/mol/K) (F22-4 antibody; PBS buffer at 25°C): -41,2 cal/mol/K | Kd (F22-4 antibody; [8]): 5400 nM | Kd (F22-4 antibody; [9]): 5400 nM | IC50 compared with B(E)CDA'B'(E')C' (LPS/F22-4 [3]; reference (12)): only an order of magnitude higher | Kd (mAb F22-4 [4]; [10]): 5320 nM | Biacore Cin koff(s-1) (mAb F22-4 [4]; kinetic analysis): 0,123±0,04 s-1 | Kd (mAb F22-4 [4]; [11]): 4470 nM | IC50 (LPS/F22-4 [2]): 5 ± 1.4 µM

CC(=O)N[C@@H]1[C@@H](O[C@@H]2O[C@@H](C)[C@H](O[C@H]3O[C@H](CO)[C@@H](O)[C@H](O)[C@H]3O)[C@@H](O[C@@H]3O[C@@H](C)[C@H](O)[C@@H](O)[C@H]3O[C@@H]3O[C@@H](C)[C@H](O)[C@@H](O)[C@H]3O[C@@H]3O[C@H](CO)[C@@H](O)[C@H](O[C@@H]4O[C@@H](C)[C@H](O[C@H]5O[C@H](CO)[C@@H](O)[C@H](O)[C@H]5O)[C@@H](O[C@@H]5O[C@@H](C)[C@H](O)[C@@H](O)[C@H]5O[C@@H]5O[C@@H](C)[C@H](O)[C@@H](O)[C@H]5O)[C@H]4O)[C@H]3NC(C)=O)[C@H]2O)[C@H](O)[C@@H](CO)O[C@H]1O [[AB(E)CD]2]
Kd (mAb F22-4 [1]): 1.5 µM | StopFlow koff(s-1) (mAb F22-4 [1]): 0,13 s-1 | StopFlow kon(M-1.s-1) (mAb F22-4 [1]): 8,30E+04 M-1.s-1 | ΔH (Kcal/mol) (F22-4 antibody; PBS buffer at 25°C): -17,7±0,7 Kcal/mol | ΔS (cal/mol/K) (F22-4 antibody; PBS buffer at 25°C): -31,7 cal/mol/K | Kd (F22-4 antibody; [8]): 1040 nM | Kd (F22-4 antibody; [9]): 1040 nM | Kd (mAb F22-4 [4]; [10]): 1000 nM | Biacore Cin koff(s-1) (mAb F22-4 [4]; kinetic analysis): 0,074±0,004 s-1 | Kd (mAb F22-4 [4]; [11]): 1090 nM | IC50 (LPS/F22-4 [2]): 0.7 µM

YLEDWIKYNNQK [Peptide B1]
ΔH (Kcal/mol) (F22-4 antibody; PBS buffer at 25°C): -24,0 ±0,1 Kcal/mol | ΔS (cal/mol/K) (F22-4 antibody; PBS buffer at 25°C): -54,6 cal/mol/K | Kd (F22-4 antibody; [9]): 2490 nM | Kd (mAb F22-4 [6]): 2980 nM | IC50 (LPS/F22-4 [7]): ~3000 nM

CC(=O)N[C@@H]1[C@@H](O[C@@H]2O[C@@H](C)[C@H](O[C@H]3O[C@H](CO)[C@@H](O)[C@H](O)[C@H]3O)[C@@H](O[C@@H]3O[C@@H](C)[C@H](O)[C@@H](O)[C@H]3O[C@@H]3O[C@@H](C)[C@H](O)[C@@H](O)[C@H]3O[C@@H]3O[C@H](CO)[C@@H](O)[C@H](O[C@@H]4O[C@@H](C)[C@H](O[C@H]5O[C@H](CO)[C@@H](O)[C@H](O)[C@H]5O)[C@@H](O[C@@H]5O[C@@H](C)[C@H](O)[C@@H](O)[C@H]5O[C@@H]5O[C@@H](C)[C@H](O)[C@@H](O)[C@H]5O[C@@H]5O[C@H](CO)[C@@H](O)[C@H](O[C@@H]6O[C@@H](C)[C@H](O[C@H]7O[C@H](CO)[C@@H](O)[C@H](O)[C@H]7O)[C@@H](O[C@@H]7O[C@@H](C)[C@H](O)[C@@H](O)[C@H]7O[C@@H]7O[C@@H](C)[C@H](O)[C@@H](O)[C@H]7O)[C@H]6O)[C@H]5NC(C)=O)[C@H]4O)[C@H]3NC(C)=O)[C@H]2O)[C@H](O)[C@@H](CO)O[C@H]1O [[AB(E)CD]3]
Kd (mAb F22-4 [1]): 0.69 µM | StopFlow koff(s-1) (mAb F22-4 [1]): 0,11 s-1 | StopFlow kon(M-1.s-1) (mAb F22-4 [1]): 1,70E+05 M-1.s-1 | ΔH (Kcal/mol) (F22-4 antibody; PBS buffer at 25°C): -17,3±0,8 Kcal/mol | ΔS (cal/mol/K) (F22-4 antibody; PBS buffer at 25°C): -30,6 cal/mol/K | Kd (F22-4 antibody; [8]): 1030 nM | Kd (F22-4 antibody; [9]): 1030 nM | Kd (mAb F22-4 [4]; [10]): 560 nM | Biacore Cin koff(s-1) (mAb F22-4 [4]; kinetic analysis): 0,075+0,005^(H) s-1 | Kd (mAb F22-4 [4]; [11]): 1560 nM | IC50 (LPS/F22-4 [2]): 0.32 µM
